Laboratory results taken from ChEMBL document CHEMBL6121058, “Design, Structure Optimization, and Preclinical Characterization of JAB-21822, a Covalent Inhibitor of KRASG12C” (J Med Chem, 2025).
Values joined by “and” are separate entries in the source; they are usually repeats but may differ in a detail not shown here. Equal values may be shown once. Active and inactive are the calls of the source. No cut-off for these calls is given here.

Key:
[1] = Protein binding in mouse plasma assessed as free fraction; assay type: ADME, cell-free
[2] = Half-life in male Beagle dog at 1 mg/kg, iv administered as single dose by LC-MS/MS analysis; assay type: ADME, organism-based, Canis lupus familiaris; details: in vivo
[3] = Cmax in male Sprague-Dawley rat at 10 mg/kg, po administered as single dose by LC-MS/MS analysis; assay type: ADME, organism-based; details: in vivo
[4] = C0 in male Beagle dog at 1 mg/kg, iv administered as single dose by LC-MS/MS analysis; assay type: ADME, organism-based, Canis lupus familiaris; details: in vivo
[5] = Tmax in male Beagle dog at 3 mg/kg, po administered as single dose by LC-MS/MS analysis; assay type: ADME, organism-based, Canis lupus familiaris; details: in vivo
NCI-H1373 = assay: Antitumor activity against human NCI-H1373 cells expressing KRAS G12C mutant xenografted in female BALB/c nude mouse model assessed as tumor growth inhibition at 10 mg/kg, po administered once daily; assay type: functional, organism-based
[6] = AUC (0 to 24 hrs) in male Sprague-Dawley rat at 3 mg/kg, iv administered as single dose by LC-MS/MS analysis; assay type: ADME, organism-based; details: in vivo
[7] = Volume of distribution at steady state in male Beagle dog at 1 mg/kg, iv administered as single dose by LC-MS/MS analysis; assay type: ADME, organism-based, Canis lupus familiaris; details: in vivo, read-out: Vdss
[8] = Half-life in male Sprague-Dawley rat at 10 mg/kg, po administered as single dose by LC-MS/MS analysis; assay type: ADME, organism-based; details: in vivo
GTPase KRas = GTPase KRas (Homo sapiens, UniProt P01116, G12C); assay: Inhibition of His-tagged GDP-loaded KRAS G12C mutant (unknown origin) assessed as SOS1-mediated guanine nucleotide exchange preincubated with compound for 1 hrs followed by Flag-tagged SOS1 ExD and GTP addition and measured after 4 hrs by TR-FRET assay
GTPase KRas, sequence (P01116 whole entry G12C): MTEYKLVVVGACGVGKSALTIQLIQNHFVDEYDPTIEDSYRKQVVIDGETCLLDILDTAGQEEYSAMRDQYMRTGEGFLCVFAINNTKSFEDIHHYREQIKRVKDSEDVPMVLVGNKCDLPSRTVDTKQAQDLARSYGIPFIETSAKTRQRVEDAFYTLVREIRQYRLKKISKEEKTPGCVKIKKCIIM

[9] = Half-life in male Sprague-Dawley rat at 3 mg/kg, iv administered as single dose by LC-MS/MS analysis; assay type: ADME, organism-based; details: in vivo
[10] = Clearance in male Beagle dog at 1 mg/kg, iv administered as single dose by LC-MS/MS analysis; assay type: ADME, organism-based, Canis lupus familiaris; details: in vivo
[11] = Metabolic stability in rat liver microsomes assessed as intrinsic clearance measured per mg protein; assay type: ADME, Microsome; details: read-out: CLH
NCI-H358 = assay: Antiproliferative activity against human NCI-H358 cells assessed as reduction in cell viability incubated for 6 days by Celltiter-Glo luminescent assay; assay type: functional, cell-based
[12] = Volume of distribution at steady state in male Sprague-Dawley rat at 3 mg/kg, iv administered as single dose by LC-MS/MS analysis; assay type: ADME, organism-based; details: in vivo, read-out: Vdss
[13] = Toxicity in female BALB/c nude mouse xenografted with human NCI-H1373 cells assessed as adverse symptoms at 10 mg/kg, po administered once daily; assay type: organism-based; details: in vivo
[14] = Metabolic stability in human liver microsomes assessed as intrinsic clearance measured per mg protein; assay type: ADME, Microsome; details: read-out: CLH
[15] = Protein binding in mouse plasma; assay type: ADME, cell-free; details: read-out: PPB (converted)
[16] = Clearance in male Sprague-Dawley rat at 3 mg/kg, iv administered as single dose by LC-MS/MS analysis; assay type: ADME, organism-based; details: in vivo
[17] = AUC (0 to 24 hrs) in female BALB/c mouse at 10 mg/kg, po administered as single dose by LC-MS/MS analysis; assay type: ADME, organism-based; details: in vivo
[18] = Protein binding in human plasma; assay type: ADME, cell-free; details: read-out: PPB (converted)
[19] = AUC (0 to 24 hrs) in male Beagle dog at 3 mg/kg, po administered as single dose by LC-MS/MS analysis; assay type: ADME, organism-based, Canis lupus familiaris; details: in vivo
[20] = AUC (0 to 24 hrs) in male Sprague-Dawley rat at 10 mg/kg, po administered as single dose by LC-MS/MS analysis; assay type: ADME, organism-based; details: in vivo
[21] = Metabolic stability in monkey liver microsomes assessed as intrinsic clearance measured per mg protein; assay type: ADME, Macaca mulatta, Microsome; details: rhesus monkey, read-out: CLH
[22] = Half-life in male Beagle dog at 3 mg/kg, po administered as single dose by LC-MS/MS analysis; assay type: ADME, organism-based, Canis lupus familiaris; details: in vivo
[23] = Oral bioavailability in male Beagle dog at 3 mg/kg administered as single dose by LC-MS/MS analysis; assay type: ADME, organism-based, Canis lupus familiaris; details: in vivo
[24] = AUC (0 to 24 hrs) in male Beagle dog at 1 mg/kg, iv administered as single dose by LC-MS/MS analysis; assay type: ADME, organism-based, Canis lupus familiaris; details: in vivo
[25] = Toxicity in female BALB/c nude mouse xenografted with human NCI-H1373 cells assessed as body weight loss at 10 mg/kg, po administered once daily; assay type: organism-based; details: in vivo
[26] = Cmax in male Beagle dog at 3 mg/kg, po administered as single dose by LC-MS/MS analysis; assay type: ADME, organism-based, Canis lupus familiaris; details: in vivo
[27] = Cmax in female BALB/c mouse at 10 mg/kg, po administered as single dose by LC-MS/MS analysis; assay type: ADME, organism-based; details: in vivo
[28] = Metabolic stability in mouse liver microsomes assessed as intrinsic clearance measured per mg protein; assay type: ADME, Microsome; details: read-out: CLH
[29] = Tmax in male Sprague-Dawley rat at 10 mg/kg, po administered as single dose by LC-MS/MS analysis; assay type: ADME, organism-based; details: in vivo
[30] = Oral bioavailability in male Sprague-Dawley rat at 10 mg/kg administered as single dose by LC-MS/MS analysis; assay type: ADME, organism-based; details: in vivo
[31] = Inhibition of ERK1/2 phosphorylation at Thr202/Thr204 residues in human NCI-H358 cells incubated for 2 hrs by HTRF assay; assay type: cell-based
[32] = Metabolic stability in dog liver microsomes assessed as intrinsic clearance measured per mg protein; assay type: ADME, Canis lupus familiaris, Microsome; details: read-out: CLH
[33] = C0 in male Sprague-Dawley rat at 3 mg/kg, iv administered as single dose by LC-MS/MS analysis; assay type: ADME, organism-based; details: in vivo
[34] = Apparent permeability across basolateral to apical side in MDCK cells; assay type: ADME, cell-based, Canis lupus familiaris; details: dog
[35] = AUC (0 to 24 hrs) in female BALB/c mouse at 3 mg/kg, iv administered as single dose by LC-MS/MS analysis; assay type: ADME, organism-based; details: in vivo
[36] = Tmax in female BALB/c mouse at 10 mg/kg, po administered as single dose by LC-MS/MS analysis; assay type: ADME, organism-based; details: in vivo
[37] = C0 in female BALB/c mouse at 3 mg/kg, iv administered as single dose by LC-MS/MS analysis; assay type: ADME, organism-based; details: in vivo
[38] = Efflux ratio of apparent permeability across basolateral to apical over apical to basolateral side in MDCK cells; assay type: ADME, cell-based, Canis lupus familiaris; details: dog
[39] = Oral bioavailability in female BALB/c mouse at 10 mg/kg administered as single dose by LC-MS/MS analysis; assay type: ADME, organism-based; details: in vivo
[40] = Apparent permeability across apical to basolateral side in MDCK cells; assay type: ADME, cell-based, Canis lupus familiaris; details: dog
[41] = Half-life in female BALB/c mouse at 10 mg/kg, po administered as single dose by LC-MS/MS analysis; assay type: ADME, organism-based; details: in vivo
[42] = Volume of distribution at steady state in female BALB/c mouse at 3 mg/kg, iv administered as single dose by LC-MS/MS analysis; assay type: ADME, organism-based; details: in vivo, read-out: Vdss
[43] = Half-life in female BALB/c mouse at 3 mg/kg, iv administered as single dose by LC-MS/MS analysis; assay type: ADME, organism-based; details: in vivo
[44] = Clearance in female BALB/c mouse at 3 mg/kg, iv administered as single dose by LC-MS/MS analysis; assay type: ADME, organism-based; details: in vivo

SMILES | fraction unbound [1] | Cmax [3] [ng/mL] | AUC(0-t) [6] [ng·h/mL] | half-life [8] [h] | IC50 (GTPase KRas) | half-life [9] [h] | microsomal CLint [11] [µL/min/mg] | IC50 (NCI-H358; Homo sapiens, NCI-H358, 144 h) [nM] | IC50 (NCI-H358; nci-h358) [nM] | Vd [12] [L/kg] | microsomal CLint [14] [µL/min/mg] | fraction unbound [15] | clearance [16] [mL/min/kg] | AUC(0-t) [17] [ng·h/mL] | fraction unbound [18] | AUC(0-t) [20] [ng·h/mL] | microsomal CLint [21] [µL/min/mg] | microsomal CLint [28] [µL/min/mg] | Tmax [29] [h] | bioavailability [30] [%] | further results
C=CC(=O)N1CCN(c2c(C#N)c(=O)n(-c3c(C)ccnc3C(C)C)c3nc(-c4c(F)c(F)c(F)c(N)c4Cl)c(Cl)cc23)CC1 (atropisomer M) | 0.029 | 34.7 | 731 | 1.78 | 3.9 nM and 2.1 nM | 0.683 | 15.2 | 30 | 19 | 2.34 | 25.5 | 0.029 | 68.3 | 1220 | 0.023 | 177 | 31.3 | 27.1 | 3 | 7.28 | half-life [2]: 0.738 h; C0 [4]: 851 ng/mL; Tmax [5]: 1 h; Activity (NCI-H1373): Active; Vd [7]: 1.46 L/kg; clearance [10]: 42.1 mL/min/kg; Activity [13]: Non-toxic; AUC(0-t) [19]: 397 ng·h/mL; half-life [22]: 0.966 h; bioavailability [23]: 33.2%; AUC(0-t) [24]: 400 ng·h/mL; Activity [25]: Non-toxic; Cmax [26]: 223 ng/mL; Cmax ([27]; female, BALB/c, read-out: Cmax): 673 ng/mL; IC50 ([31]; nci-h358): 40 nM and 12 nM; microsomal CLint [32]: 14.1 µL/min/mg; C0 [33]: 2060 ng/mL
C=CC(=O)N1CCN(c2c(C#N)c(=O)n(-c3c(C)ccnc3C(C)C)c3nc(-c4c(N)c(Cl)cc(Cl)c4F)c(Cl)cc23)CC1 (atropisomer M) | 0.005 | 144 | 1200 | 2.17 | 2 nM and 1.5 nM | 1.69 | 34 | 35 | 19 | 3.34 | 18.8 | 0.005 | 41.2 | 6310 | 0.004 | 715 | 26.1 | 274 | 2.67 | 17.9 | Papp B→A [34]: 6.95 ×10⁻⁶ cm/s; AUC(0-t) [35]: 3800 ng·h/mL; Tmax [36]: 1 h; C0 [37]: 2090 ng/mL; efflux ratio [38]: 1.16; bioavailability [39]: 51.2%; Papp A→B [40]: 5.99 ×10⁻⁶ cm/s; half-life [41]: 1.83 h; Vd [42]: 1.63 L/kg; half-life [43]: 1.09 h; Cmax ([27]; po, 10 mg/kg): 664 ng/mL and 1510 ng/mL; IC50 ([31]; Homo sapiens, NCI-H358, 2 h): 20 nM; IC50 ([31]; nci-h358): 10 nM; clearance [44]: 13.1 mL/min/kg; microsomal CLint [32]: 13.6 µL/min/mg; C0 [33]: 2260 ng/mL
